Experimental findings from patent publication US9302999B2, “Substituted triazoles as herbicides” (E. I. DU PONT DE NEMOURS AND COMPANY, priority 2012, dated 2016) are described below.

Common to all, as to format: in vivo
The subject of test [1] is beggarticks (hairy beggarticks, Bidens pilosa). The experiment in a line: Test E pre-/postemergence: beggarticks. The following applies: Postemergence, scale 0 to 100. The source says:
Seeds of plant species selected from corn (Zea mays), soybean (Glycine max), velvetleaf (Abutilon theophrasti), lambsquarters (Chenopodium album), poinsettia, wild (wild poinsettia, Euphorbia heterophylla), pigweed, palmer (palmer pigweed, Amaranthus palmeri), waterhemp (common waterhemp, Amaranthus rudis), smartweed (ladysthumb smartweed, Polygonum persicaria), surinam grass (Brachiaria decumbens), crabgrass, large (large crabgrass, Digitaria sanguinalis), crabgrass, Brazil (Brazilian crabgrass, Digitaria horizontalis), panicum, fall (fall panicum, Panicum dichotomiflorum), foxtail, giant (giant foxtail, Setaria faberii), foxtail, green (green foxtail, Setaria viridis), goosegrass (Eleusine indica), johnsongrass (Sorghum halepense), ragweed (common ragweed, Ambrosia elation), barnyardgrass (Echinochloa crus-galli), sandbur (southern sandbur, Cenchrus echinatus), arrowleaf sida (Sida rhombifolia), ryegrass, Italian (Italian ryegrass, Lolium multiflorum), dayflower, (VA) (Virginia dayflower, Commelina virginica), field bindweed (Convolvulus arvensis), cocklebur (common cocklebur, Xanthium strumarium), morningglory (Ipomoea coccinea), nightshade (eastern black nightshade, Solanum ptycanthum), kochia (Kochia scoparia), nutsedge, yellow (yellow nutsedge, Cyperus esculentus) and beggarticks (hairy beggarticks, Bidens pilosa) were planted into a silt loam soil and treated preemergence with test chemicals formulated in a non-phytotoxic solvent mixture which included a surfactant. At the same time, plants selected from these crop and weed species were planted in pots containing a growing medium comprising spaghnum peat moss, vermiculite, wetting agent and starter nutrients and treated with postemergence applications of some of the test chemicals formulated in the same manner. Plants ranged in height from 2 to 18 cm for postemergence treatments (1- to 4-leaf stage).
(§1) Treated plants and controls were maintained in a greenhouse for 14 to 21 days, after which time all species were compared to controls and visually evaluated. Plant response ratings, summarized in Table E, are based on a scale of 0 to 100 where 0 is no effect and 100 is complete control. A dash (-) response means no test result.

For test [2], the system named is Italian ryegrass (LOLMU, Lolium multiflorum). Put plainly: Test H post-emergence, alone and in combination: Italian ryegrass. The source says:
(§2) Seeds of plant species selected from wheat (TRZAW, Triticum aestivum), barley (HORBW, Hordeum vulgare), Kochia (KCHSC, Kochia caoparia) blackgrass (ALOMY, Alopecurus myosuroides), canarygrass (PHAMI, Phalaris minor), Italian ryegrass (LOLMU, Lolium multiflorum) common lambsquarter (CHEAL, Chenopodium album), pigweed (AMARE, Amaranthus retroflexus), Common Chickweed (STEME, Stellaria media), Russian thistle (SASKR, Salsola iberica), Wild Buckwheat (POLCO, Polygonum convolvulus), Catchweed Bedstraw (GALAP, Galium aparine), Mustard (SINAR, Sinapisar arvensis), Henbit Deadnettle (LAMAM, Lamium amplexicaule), Wild Radish (RAPRA, Raphanus raphanistrum), Field Poppy (PAPRH, Papaver rhoeas), Field Violet (VIOAR, Viola arvennsis), Scentless Chamomile (MATIN Matricaria inodora) were planted into soil and treated post-emergence with test chemicals formulated in a non-phytotoxic solvent mixture. Plants were grown in a greenhouse using supplemental lighting to maintain a photoperiod of approximately 14 hours; daytime and nighttime temperatures were approximately 23°-29° and 16°-19° Celsius, respectively. Balanced fertilizer was applied through the watering system. Treated plants and controls were maintained in a greenhouse for 20 days, after which time all species were compared to controls and visually evaluated. Plant response ratings were calculated as the mean of three replicates (unless otherwise indicated), are summarized in Table G, and are based on a scale of 0 to 100 where 0 is no effect and 100 is complete control. A dash (-) response means no test result.

In test [3] the test system is Wild Buckwheat (POLCO, Polygonum convolvulus). Put plainly: Test H post-emergence, alone and in combination: Wild Buckwheat.
Description: as §2

The subject of test [4] is smartweed (ladysthumb smartweed, Polygonum persicaria). The experiment in a line: Test F pre-/postemergence: smartweed.
Description: Seeds of plant species selected from corn (Zea mays), soybean (Glycine max), velvetleaf (Abutilon theophrasti), lambsquarters (Chenopodium album), poinsettia, wild (wild poinsettia, Euphorbia heterophylla), pigweed, palmer (palmer pigweed, Amaranthus palmeri), waterhemp (common waterhemp, Amaranthus rudis), surinam grass (Brachiaria decumbens), crabgrass, Brazil (Brazilian crabgrass, Digitaria horizontalis), panicum, fall (fall panicum Panicum dichotomiflorum), crabgrass, large (large crabgrass, Digitaria sanguinalis), foxtail, giant (giant foxtail, Setaria faberii), foxtail, green (green foxtail Setaria viridis), goosegrass (Eleusine indica), ragweed (common ragweed, Ambrosia elatior), barnyardgrass (Echinochloa crus-galli), sandbur (southern sandbur, Cenchrus echinatus), arrowleaf sida (Sida rhombifolia), ryegrass, Italian (Italian ryegrass, Lolium multiflorum), dayflower, VA (Virginia (VA) dayflower, Commelina virginica), field bindweed (Convolvulus arvensis), cocklebur (common cocklebur, Xanthium strumarium), morningglory (Ipomoea coccinea), nightshade (eastern black nightshade, Solanum ptycanthum), kochia (Kochia scoparia), nutsedge, yellow (yellow nutsedge, Cyperus esculentus), johnsongrass (Sorghum halepense), smartweed (ladysthumb smartweed, Polygonum persicaria), and beggarticks (hairy beggarticks, Bidens pilosa), were planted into a silt loam soil and treated preemergence with test chemicals formulated in a non-phytotoxic solvent mixture which included a surfactant. At the same time, plants selected from these crop and weed species and also pigweed (Amaranthus retroflexus), waterhemp_RES1 (ALS/Triazine resistant common waterhemp, Amaranthus rudis) and waterhemp_RES2 (ALS/HPPD resistant common waterhemp, Amaranthus rudis) were planted in pots containing a planting medium comprising spaghnum peat moss, vermiculite, wetting agent and starter nutrients treated with postemergence applications of some of the test chemicals formulated in the same manner. Plants ranged in height from 2 to 18 cm for postemergence treatments (1- to 4-leaf stage).
as §1

Regarding `Cc1nn(-c2ccc(C(F)(F)F)cc2)nc1Cc1ccnc(C(F)(F)F)c1` [Compound 47, 4-[[5-methyl-2-[4-(trifluoromethyl)phenyl]-2H-1,2,3-triazol-4-yl]methyl]-2-(trifluoromethyl)pyridine], the “Plant response rating: Beggarticks” value in test [1] (250 g ai/ha) is 50; in test [1] (16 g ai/ha), 30; in test [1] (31 g ai/ha), 30; in test [1] (62 g ai/ha), 40; in test [1] (125 g ai/ha), 50.
Turning to `Cc1nn(-c2ccc(F)cc2)nc1Oc1ccnc(C(F)(F)F)c1` [Compound 129, 4-[[2-(4-fluorophenyl)-5-methyl-2H-1,2,3-triazol-4-yl]oxy]-2-(trifluoromethyl)pyridine], the LOLMU plant response in test [2] (Rate 31) amounted to 10; in test [2] (Rate 62), 10; in test [2] (Rate 125) it was 15. For the same compound, the POLCO plant response was found to be 30 in test [3] (Rate 31), 25 in test [3] (Rate 62) and 70 in test [3] (Rate 125).
For `Cc1nn(-c2ccc(C(F)(F)F)c(F)c2)nc1Cc1ccnc(C(F)(F)F)c1` [Compound 162], the “Plant response rating, Smartweed” value in test [4] (Postemergence, 4 g ai/ha, scale 0 to 100) was 10; in test [4] (Postemergence, 8 g ai/ha, scale 0 to 100), 10; in test [4] (Postemergence, 16 g ai/ha, scale 0 to 100), 10; in test [4] (Postemergence, 31 g ai/ha, scale 0 to 100) it was 15; in test [4] (Postemergence, 62 g ai/ha, scale 0 to 100) it was 15; in test [4] (Preemergence, 4 g ai/ha, scale 0 to 100, 0 no effect, 100 complete control), 0. In addition, the “Plant response rating, Smartweed” value in test [4] (Preemergence, 8 g ai/ha, scale 0 to 100, 0 no effect, 100 complete control) is 0; in test [4] (Preemergence, 16 g ai/ha, scale 0 to 100 (0 no effect, 100 complete control)) it was 0; in test [4] (Preemergence, 31 g ai/ha, scale 0 to 100 (0 no effect, 100 complete control)) it was 0.
